Converted amounts (≈) assume the structure as drawn.
Columns and labels:
Format in all cases: functional
Enterococcus faecalis = assay: Inhibitory activity against Enterococcus faecalis UC9217
Haemophilus influenzae = assay: Inhibitory activity against Haemophilus influenzae UC30063
Moraxella catarrhalis = assay: Inhibitory activity against Moraxella catarrhalis UC30610
Streptococcus pneumoniae = assay: Inhibitory activity against Streptococcus pneumoniae UC9912
[1] = system: Staphylococcus epidermidis; assay: Inhibitory activity against Methicillin-resistant Staphylococcus epidermidis UC12084
Staphylococcus aureus [2] = assay: Inhibitory activity against Methicillin-resistant Staphylococcus aureus UC6685
Staphylococcus aureus [3] = assay: Inhibitory activity against Methicillin-susceptible Staphylococcus aureus UC9213
Mus musculus [4] = assay: Dose required to cure 50% of Staphylococcus aureus infected mice when administered orally;; details: po
Mus musculus [5] = assay: Dose required to cure 50% of Staphylococcus aureus infected mice in the presence of eperezolid when administered orally; vlue ranges from 1.1-2.8; details: po
Mus musculus [6] = assay: Dose required to cure 50% of Staphylococcus aureus infected mice when administered orally; the value ranges from 1.1-3.3; details: po
Mus musculus [7] = assay: Dose required to cure 50% of Staphylococcus aureus infected mice in the presence of eperezolid when orally administered; the value ranges from 1.7-4.5; details: po
Mus musculus [8] = assay: Dose required to cure 50% of Staphylococcus aureus infected mice when orally administered;value ranges from 3.1-7.8; details: po
Mus musculus [9] = assay: Dose required to cure 50% of Staphylococcus aureus infected mice in the presence of vancomycin when administered orally.; details: po

SMILES	MIC (Enterococcus faecalis) [µg/mL]	MIC (Haemophilus influenzae) [µg/mL]	MIC (Moraxella catarrhalis) [µg/mL]	MIC (Streptococcus pneumoniae) [µg/mL]	MIC [1] [µg/mL]	MIC (Staphylococcus aureus [2]) [µg/mL]	MIC (Staphylococcus aureus [3]) [µg/mL]	ED50 (Mus musculus [4]) [mg/kg/day]	ED50 (Mus musculus [5]) [mg/kg/day]	ED50 (Mus musculus [6]) [mg/kg/day]	ED50 (Mus musculus [7]) [mg/kg/day]	ED50 (Mus musculus [8]) [mg/kg/day]	ED50 (Mus musculus [9]) [mg/kg/day]
CC(=O)NC[C@H]1CN(c2ccc(-n3cnnc3)c(F)c2)C(=O)O1	8 (≈ 25.1 µM)	> 16	8 (≈ 25.1 µM)	1 (≈ 3.13 µM)	4 (≈ 12.5 µM)	8 (≈ 25.1 µM)	16 (≈ 50.1 µM)	> 20	2	–	–	–	–
CC(=O)NC[C@H]1CN(c2ccc(-n3cc(C#N)nn3)c(F)c2)C(=O)O1	1 (≈ 2.9 µM)	2 (≈ 5.81 µM)	2 (≈ 5.81 µM)	≤ 0.125	0.25 (≈ 0.726 µM)	0.5 (≈ 1.45 µM)	1 (≈ 2.9 µM)	–	–	1.9	2.8	–	–
CC(=O)NC[C@H]1CN(c2ccc(-n3ccnn3)c(F)c2)C(=O)O1	1 (≈ 3.13 µM)	4 (≈ 12.5 µM)	2 (≈ 6.26 µM)	≤ 0.5	≤ 0.5	1 (≈ 3.13 µM)	1 (≈ 3.13 µM)	–	–	–	–	4.7	2

Reference: ChEMBL document CHEMBL1132968, “Substituent effects on the antibacterial activity of nitrogen-carbon-linked (azolylphenyl)oxazolidinones with expanded activity against the fastidious gram-negative organisms Haemophilus influenzae and Moraxella catarrhalis” (2000)
